Experimental data published in US20170071976A1, “PHARMACEUTICAL SOLUTION HAVING ANTI-TUMOR EFFECT-ENHANCING AND TOXICITY-REDUCING EFFECT, AND PHARMACEUTICAL COMPOSITION COMPRISING SAME” (priority 2014, published 2017).

Tests used:
Test in all cases: MTT assay: in vitro inhibition of growth by deuterium oxide
Type in all cases: cell-based, human
[1] = tested on: 5637 bladder cancer cell line
Description: (§1) Studies of in vitro inhibition of growth of human tumor cells by deuterium oxide, by the MTT (3-(4,5-dimethylthiazol-2-yl)-2,5-diphenyltetrazolium bromide) assay
(§2) 1. A bottle of cells that had been cultured for 3 to 4 days and were in the exponential phase was taken, a suitable amount of 0.25% Trypsin-EDTA solution was added thereto to detach the cells from the wall, and the cells were suspended in 10 ml RPMI 1640 medium containing 10% FBS. 2. The cells were counted on a hemocytometer, and generally viable cells should be not less than 97%. 3. The cell suspension was diluted with a complete medium to prepare a suspension containing 1×10^4 cells/ml. 4. To each well of a 12-well culture plate, 300 μl cell suspension was added. The addition of cells should be finished within 4 hours. The plate was placed in an incubator at 37° C. and 5% CO2 for 24 hours. 5. Powdery RPMI Medium 1640 (Gibco, USA, Cat#: 31800-022) was dissolved in deuterium oxide (provided by Cambridge Isotope Laboratories, Inc. (US)) to prepare a cell culture medium (unless particularly specified, all culture media used in the Examples hereinafter were prepared from powdery RPMI Medium 1640 and deuterium oxide) at a concentration shown in Table 1, which was added into the cell culture plate. 6. The cell culture plate was incubated for 3 days in an incubator at 37° C., 5% CO2 and 100% humidity. 7. A solution of 1 mg/ml MTT was prepared in a serum-free RPMI1640 medium, added to the plate at 200 μl/well, and incubated at 37° C. for 4 hours, to allow MTT to be reduced to formazan. 8. The supernatant was removed by pipetting, 200 μl DMSO was added to dissolve formazan, and the solution was well mixed on a platform shaker. 9. Absorbance of each well was measured on an ELISA reader with a detection wavelength of 570 nm and a reference wavelength of 450 nm. 10. The assay was repeated one more time.
(§3) Calculation of results: Inhibition of growth of tumor cells by deuterium oxide was calculated using tumor cells treated with sodium chloride physiological solution as a control group. Inhibition of cell growth was plotted against amounts of deuterium oxide to obtain a dose response curve, from which the half maximal inhibitory concentration (IC50) of deuterium oxide was derived.
(§4) Inhibition of tumor cell growth (%)=(1−OD test/OD control)×100%

[2] = tested on: A549 lung cancer cell line
Description: as §1, §2, §3, §4

[3] = tested on: ASPC-1 pancreatic cancer cell line
Description: as §1, §2, §3, §4

[4] = tested on: CFPAC-1 pancreatic cancer cell line
Description: as §1, §2, §3, §4

[5] = tested on: Caov-3 ovarian cancer cell line; settings: expressed in v/v %
Description: as §1, §2, §3, §4

K562 leukemia cell line = tested on: K562 leukemia cell line
Description: as §1, §2, §3, §4

[6] = tested on: MCF-7 breast cancer cell line
Description: as §1, §2, §3, §4

[7] = tested on: PC-3 prostate cancer cell line
Description: as §1, §2, §3, §4

[2H]O[2H] [Deuterium oxide]
Inhibition of growth (%) ([1]; deuterium oxide 1.2% (v/v)): 0.84% | Inhibition of growth (%) ([1]; deuterium oxide 2.5% (v/v)): −3.09% | Inhibition of growth (%) ([1]; deuterium oxide 5% (v/v)): 10.44% | Inhibition of growth (%) ([1]; deuterium oxide 10% (v/v)): 16.15% | Inhibition of growth (%) ([1]; deuterium oxide 20% (v/v)): 25.56% | Inhibition of growth (%) ([1]; deuterium oxide 30% (v/v)): 36.69% | Inhibition of growth (%) ([1]; deuterium oxide 40% (v/v)): 44.32% | Inhibition of growth (%) ([1]; deuterium oxide 50% (v/v)): 52.11% | Inhibition of growth (%) ([1]; deuterium oxide 60% (v/v)): 59.76% | Inhibition of growth (%) ([1]; deuterium oxide 70% (v/v)): 74.86% | Inhibition of growth (%) ([1]; deuterium oxide 80% (v/v)): 88.43% | IC10 ([1]; expressed in v/v %): 4.46% | IC50 ([1]; expressed in v/v %): 59.08% | Inhibition of growth (%) ([2]; deuterium oxide 1.2% (v/v)): 7.71% | Inhibition of growth (%) ([2]; deuterium oxide 2.5% (v/v)): 17.64% | Inhibition of growth (%) ([2]; deuterium oxide 5% (v/v)): 18.05% | Inhibition of growth (%) ([2]; deuterium oxide 10% (v/v)): 18.88% | Inhibition of growth (%) ([2]; deuterium oxide 20% (v/v)): 16.19% | Inhibition of growth (%) ([2]; deuterium oxide 30% (v/v)): 27.71% | Inhibition of growth (%) ([2]; deuterium oxide 40% (v/v)): 39.37% | Inhibition of growth (%) ([2]; deuterium oxide 50% (v/v)): 42.67% | Inhibition of growth (%) ([2]; deuterium oxide 60% (v/v)): 55.42% | Inhibition of growth (%) ([2]; deuterium oxide 70% (v/v)): 70.88% | Inhibition of growth (%) ([2]; deuterium oxide 80% (v/v)): 92.34% | IC10 ([2]; expressed in v/v %): 1.52% | IC50 ([2]; expressed in v/v %): 55.32% | Inhibition of growth (%) ([3]; deuterium oxide 1.2% (v/v)): 0.64% | Inhibition of growth (%) ([3]; deuterium oxide 2.5% (v/v)): 6.35% | Inhibition of growth (%) ([3]; deuterium oxide 5% (v/v)): −0.20% | Inhibition of growth (%) ([3]; deuterium oxide 10% (v/v)): −4.88% | Inhibition of growth (%) ([3]; deuterium oxide 20% (v/v)): −7.26% | Inhibition of growth (%) ([3]; deuterium oxide 30% (v/v)): 9.70% | Inhibition of growth (%) ([3]; deuterium oxide 40% (v/v)): 23.99% | Inhibition of growth (%) ([3]; deuterium oxide 50% (v/v)): 44.14% | Inhibition of growth (%) ([3]; deuterium oxide 60% (v/v)): 52.22% | Inhibition of growth (%) ([3]; deuterium oxide 70% (v/v)): 70.14% | Inhibition of growth (%) ([3]; deuterium oxide 80% (v/v)): 85.83% | IC10 ([3]; expressed in v/v %): 11.80% | IC50 ([3]; expressed in v/v %): 57.00% | Inhibition of growth (%) ([4]; deuterium oxide 1.2% (v/v)): 6.82% | Inhibition of growth (%) ([4]; deuterium oxide 2.5% (v/v)): 14.05% | Inhibition of growth (%) ([4]; deuterium oxide 5% (v/v)): 13.42% | Inhibition of growth (%) ([4]; deuterium oxide 10% (v/v)): 10.75% | Inhibition of growth (%) ([4]; deuterium oxide 20% (v/v)): 14.84% | Inhibition of growth (%) ([4]; deuterium oxide 30% (v/v)): 26.16% | Inhibition of growth (%) ([4]; deuterium oxide 40% (v/v)): 33.67% | Inhibition of growth (%) ([4]; deuterium oxide 50% (v/v)): 45.30% | Inhibition of growth (%) ([4]; deuterium oxide 60% (v/v)): 61.42% | Inhibition of growth (%) ([4]; deuterium oxide 70% (v/v)): 77.94% | Inhibition of growth (%) ([4]; deuterium oxide 80% (v/v)): 91.85% | IC10 ([4]; expressed in v/v %): 3.20% | IC50 ([4]; expressed in v/v %): 59.43% | IC10 [5]: 11.51% | IC50 [5]: 46.83% | Inhibition of growth (%) (K562 leukemia cell line; deuterium oxide 1.2% (v/v)): −2.47% | Inhibition of growth (%) (K562 leukemia cell line; deuterium oxide 2.5% (v/v)): 6.51% | Inhibition of growth (%) (K562 leukemia cell line; deuterium oxide 5% (v/v)): 4.23% | Inhibition of growth (%) (K562 leukemia cell line; deuterium oxide 10% (v/v)): −7.60% | Inhibition of growth (%) (K562 leukemia cell line; deuterium oxide 20% (v/v)): 9.10% | Inhibition of growth (%) (K562 leukemia cell line; deuterium oxide 30% (v/v)): 22.72% | Inhibition of growth (%) (K562 leukemia cell line; deuterium oxide 40% (v/v)): 39.51% | Inhibition of growth (%) (K562 leukemia cell line; deuterium oxide 50% (v/v)): 55.51% | Inhibition of growth (%) (K562 leukemia cell line; deuterium oxide 60% (v/v)): 70.13% | Inhibition of growth (%) (K562 leukemia cell line; deuterium oxide 70% (v/v)): 88.59% | Inhibition of growth (%) (K562 leukemia cell line; deuterium oxide 80% (v/v)): 93.24% | IC10 (K562 leukemia cell line; expressed in v/v %): 14.83% | IC50 (K562 leukemia cell line; expressed in v/v %): 51.72% | Inhibition of growth (%) ([6]; deuterium oxide 1.2% (v/v)): 9.78% | Inhibition of growth (%) ([6]; deuterium oxide 2.5% (v/v)): 11.04% | Inhibition of growth (%) ([6]; deuterium oxide 5% (v/v)): 15.71% | Inhibition of growth (%) ([6]; deuterium oxide 10% (v/v)): 22.47% | Inhibition of growth (%) ([6]; deuterium oxide 20% (v/v)): 31.60% | Inhibition of growth (%) ([6]; deuterium oxide 30% (v/v)): 40.38% | Inhibition of growth (%) ([6]; deuterium oxide 40% (v/v)): 52.45% | Inhibition of growth (%) ([6]; deuterium oxide 50% (v/v)): 63.22% | Inhibition of growth (%) ([6]; deuterium oxide 60% (v/v)): 86.41% | Inhibition of growth (%) ([6]; deuterium oxide 70% (v/v)): 89.06% | Inhibition of growth (%) ([6]; deuterium oxide 80% (v/v)): 98.08% | IC10 ([6]; expressed in v/v %): 3.28% | IC50 ([6]; expressed in v/v %): 61.29% | Inhibition of growth (%) ([7]; deuterium oxide 1.2% (v/v)): 0.46% | Inhibition of growth (%) ([7]; deuterium oxide 2.5% (v/v)): 4.33% | Inhibition of growth (%) ([7]; deuterium oxide 5% (v/v)): −2.50% | Inhibition of growth (%) ([7]; deuterium oxide 10% (v/v)): 8.81% | Inhibition of growth (%) ([7]; deuterium oxide 20% (v/v)): −16.46% | Inhibition of growth (%) ([7]; deuterium oxide 30% (v/v)): 26.67% | Inhibition of growth (%) ([7]; deuterium oxide 40% (v/v)): 43.19% | Inhibition of growth (%) ([7]; deuterium oxide 50% (v/v)): 59.42% | Inhibition of growth (%) ([7]; deuterium oxide 60% (v/v)): 60.84% | Inhibition of growth (%) ([7]; deuterium oxide 70% (v/v)): 73.42% | Inhibition of growth (%) ([7]; deuterium oxide 80% (v/v)): 87.08% | IC10 ([7]; expressed in v/v %): 9.35% | IC50 ([7]; expressed in v/v %): 61.34%
